Experimental data as given in article PMC3489612, “Exploring flubendazole formulations for use in sheep. Pharmacokinetic evaluation of a cyclodextrin-based solution” (BMC Veterinary Research, 2012).
≈ marks a conversion by molar mass, not a printed value. Blank lines part the entries; values can stand above or below the compound they belong to.

Tests used:
[1] = in vivo
Protocol: (§1) FLBZ-solution (2% w/v) was prepared by dissolution of 2 g of pure FLBZ and 10 g of HPßCD in 100 mL of dionized water (pH 1.2). The pH was adjusted using hydrochloric acid (25 mM). The formulation was shaken during 48 h (40°C) and then was filtrated through a 0.45 μm filter (Whatman, NJ, USA). The final FLBZ concentration was confirmed by HPLC (n = 4). The FLBZ suspension (2% w/v) was performed by addition of 2 g FLBZ pure standard in a suspension of CMC (0.5% w/v) prepared with deionized water (100 mL, pH = 6.0) under shaking (24 h). The FLBZ suspension was vigorously shaken before its administration to sheep.
(§2) Six (6) parasite-free Corriedale male sheep (average weight: 50.6 ± 6.0 kg) were used in this experiment. Animals were kept indoors with commercial balanced food and water ad libitum for two months prior and during the trial. Four (4) animals were surgically fitted with a permanent cannula in the pyloric region of the abomasum following an adaptation of the technique described by Komarek. A 6-week post-surgery recovery period was allowed before starting the pharmacokinetic trials. […]
(§3) Experimental and fortified samples of plasma and abomasal fluid were analyzed for FLBZ, R-FLBZ, H-FLBZ and the internal standard (OBZ) by HPLC following the method described by Moreno et al.. […]

[2] = In vitro aqueous solubility of BZD compounds with or without HPßCD (10%); details: for aqueous solubility: 25°C, n = 6, mean ± SD; for HPßCD-induced solubility increasing effect: pH 1.2, with versus without HPßCD (10%); for solubility at 2 weeks: 25 °C, thermodynamic from solid
Protocol: BZD solubilities were determined in aqueous solutions at pH values of 1.2 (HCl/KCl) and 7.4 (KH2PO4) with or without HPßCD (10%). An excess amount of ABZ, ABZSO, MBZ, OFZ or FLBZ was suspended in glass tubes containing 10 mL of each medium. The tubes were placed in a water bath at 25°C with a constant shaken rate of 100 strokes/min for two weeks (Yamato BT-31, Yamato Scientific Co., Japan). […] The supernatants were collected and filtered through a 0.2 μm filter (Whatman Inc., NJ, USA). After filtration, samples were analyzed for drug quantification by HPLC following the method described below.
Experimental and fortified samples of plasma and abomasal fluid were analyzed for FLBZ, R-FLBZ, H-FLBZ and the internal standard (OBZ) by HPLC following the method described by Moreno et al.. Briefly, 50 μL of sample were injected in a Shimadzu 10 A HPLC System (Kyoto, Japan), using an UV detector set at 292 nm, an autosampler and a controller (Shimadzu Class LC10, Kyoto, Japan). Elution from the stationary phase (Selectosil C18 column, 5 μm, 250 × 4.6 mm, Phenomenex®, CA, USA) has been carried out at a flow rate of 1.2 mL/min, using a mixture of acetonitrile:potassium phosphate buffer (25 mM, pH 5.3) (40:60) as a mobile phase, during 13 min at 30°C.

ß-tubulin = test system: ß-tubulin; parameters: method as in PMID 15463312; details: cited from earlier work
parasite motility = test system: parasite motility; parameters: method as in PMID 9421720; details: cited from earlier work
[3] = Abomasal fluid pharmacokinetics after intraruminal (i.r.) administration of FLBZ formulations (Experiment 1); assay type: in vivo; details: sheep, after i.r. FLBZ administration as both formulations
Protocol: as §1, §2, §3

[4] = aqueous solution (HCl/KCl) with 10% HPβCD, pH 1.2, aqueous with cosolvent or surfactant or cyclodextrin
[5] = aqueous solution (HCl/KCl) without HPβCD, pH 1.2, simulated gastric fluid
[6] = aqueous solution (KH2PO4) with 10% HPβCD, pH 7.4, aqueous with cosolvent or surfactant or cyclodextrin

SMILES: Nc1nc2ccc(C(=O)c3ccc(F)cc3)cc2[nH]1 [H-FLBZ]
time of detection in plasma (low concentrations) [1]: 18 to 48 h

SMILES: CCC[S+]([O-])c1ccc2[nH]c(NC(=O)OC)nc2c1 (centres unmarked) [Albendazole sulphoxide, albendazole sulphoxide]
highest aqueous solubility ([2]; pH 1.2 (value of Table 1 with HPßCD)): 6600 ± 1300 µg/mL
aqueous solubility ([2]; pH 1.2, with HPßCD (10%)): 6637.7 ± 1370.2 µg/mL (≈ 23600 µM)
HPßCD-induced solubility increasing effect [2]: 0.7 fold
aqueous solubility ([2]; pH 1.2, without HPßCD): 3818.6 ± 202.1 µg/mL (≈ 13600 µM)
aqueous solubility ([2]; pH 7.4, with HPßCD (10%)): 871.9 ± 129.3 µg/mL (≈ 3100 µM)
aqueous solubility ([2]; pH 7.4, without HPßCD): 83.6 ± 7.6 µg/mL (≈ 297 µM)

SMILES: COC(=O)Nc1nc2cc(C(=O)c3ccc(F)cc3)ccc2[nH]1 [Flubendazole]
solubility at 2 weeks [2, 4]: 2250 ± 552 µg/mL (≈ 7190 µM)
solubility at 2 weeks [2, 5]: 29.6 ± 2.8 µg/mL (≈ 94.5 µM)
solubility at 2 weeks [2, 6]: 164 ± 120 µg/mL (≈ 523 µM)
solubility at 2 weeks ([2]; aqueous solution (KH2PO4) without HPβCD, pH 7.4, aqueous buffer): 5.8 ± 7 µg/mL (≈ 18.5 µM)
affinity binding for ß-tubulin (ß-tubulin): high affinity binding
potency in parasite motility test (parasite motility): high potency

solubility at 2 weeks [2, 4]: 1900 ± 606 µg/mL (≈ 6030 µM)
solubility at 2 weeks [2, 5]: 420 ± 29.2 µg/mL (≈ 1330 µM)
solubility at 2 weeks [2, 6]: 348 ± 46.8 µg/mL (≈ 1100 µM)
HPßCD-induced solubility increasing effect [2]: 35 fold
SMILES: COC(=O)Nc1nc2ccc([S+]([O-])c3ccccc3)cc2[nH]1 (centres unmarked) [Oxfendazole, oxfendazole]

SMILES: CCCSc1ccc2nc(NC(=O)OC)[nH]c2c1 [Albendazole]
solubility at 2 weeks ([2]; pH 1.2, aqueous with cosolvent or surfactant or cyclodextrin): 921 ± 347 µg/mL (≈ 3470 µM)
solubility at 2 weeks ([2]; pH 1.2, simulated gastric fluid): 406 ± 53.4 µg/mL (≈ 1530 µM)
solubility at 2 weeks ([2]; pH 7.4, aqueous buffer): 4.6 ± 1.3 µg/mL (≈ 17.3 µM)
solubility at 2 weeks ([2]; pH 7.4, aqueous with cosolvent or surfactant or cyclodextrin): 43 ± 8.3 µg/mL (≈ 162 µM)
HPßCD-induced solubility increasing effect [2]: 1.3 fold

SMILES: COC(=O)Nc1nc2ccc(C(O)c3ccc(F)cc3)cc2[nH]1 (centres unmarked) [R-FLBZ, reduced flubendazole]
time of detection in abomasal fluid post-treatment [3]: up to 96 h
